The values that follow come from patent US9115061B2, “Naphthalene-based inhibitors of anti-apoptotic proteins” (BURNHAM INSTITUTE FOR MEDICAL RESEARCH, priority 2007, dated 2015).

For data set [1] the following is noted: orally 0.06 mmol/kg daily for up to 21 days; cited from earlier work.
Another data set concerns ZR75-1 cells. Kind of data set: XTT dye reduction assay. The class given is cell-based, human. The settings on record: three days, read-out: IC50, cell viability ZR75-1. How it is done: (§1) The effects of the compounds on viability of tumor cells in culture were monitored by using XTT assays with MCF7 and ZR75-1 cell lines. MCF7 cells were grown in DMEM containing 10% fetal bovine serum, penicillin/streptomycin, supplemented with 10^−10 M insulin, 1 mM sodium pyruvate and glutamine. ZR75-1 cells were grown in RPMI containing 10% fetal bovine serum, penicillin/streptomycin, supplemented with HEPES buffer, 1 mM sodium pyruvate and glutamine. Cells were regularly tested for mycoplasma contamination. Cells were seeded triplicates at an initial cell density of 1,000 cells per well. Blank wells received no cells.
(§2) Relative numbers of viable cells was determined by XTT assay. Briefly, in a 96-well plate, we added 50 μl of a mixture of 1 mg/ml of XTT (2,3-bis(2-methoxy-4-nitro-5-sulfophenyl)-5-[(phenylamino)carbonyl]-2H-tetrazolium hydroxide) (Polysciences, Washington, Pa.) containing 0.025 mM PMS (phenazine methosulfate) to each well. The 96-well plates were reincubated for an additional 4 hours to allow for XTT formazan production. Then, the contents of each plate were mixed and optical densities were determined at a wavelength of 450 nm (OD450). Net OD450 was determined after subtracting OD450 of blank wells. Low-passage HeLa cells (between passage number 10 and 20) were transfected with pcDNA3-BCL-XL or control pcDNA3 plasmids using Lipofectamine Plus reagent (Invitrogen) and selected in medium containing 800 μg/ml of G418. Immunoblot analysis of BCL-XL was accomplished as previously described.
For orientation: Tetrazolium dyes change colour on reduction, which living cells bring about.

In another data set the test system is MCF7 cells. Kind of data set: XTT dye reduction assay. The class given is cell-based, human. The settings on record: three days, read-out: IC50, cell viability MCF7. How it is done: as §1, §2
The subject of data set [2] is murine B-cells from BCL-2 transgenic mice. Briefly: Viability of cultured splenocytes, Annexin V-FITC/PI. The class given is cell-based. Particulars: 18 hours; read-out: IC50, induction of apoptosis in cultured B-cells of BCL-2 transgenic mouse. How it is done:
Spleens were excised from sacrificed mice and cell suspensions treated with a mouse erythrocyte lysing kit (R & D Systems). Total splenocyte count was determined by typan blue dye exclusion assays using hemocytometers. The percentage of B-lymphocytes was determined by fluorescence activated cell sorter (FACS) analysis SACS-CANTO, Bectin-Dickinson Inc., Mountain View, Calif.) following staining cells with Phyco-Erytrin (PE)-conjugated anti-CD19 or -B220 antibodies (Becton Dickinson, San Jose, Calif. 95131).
After 18 hours of incubation, % viability of splenocytes was determined by FACSort after staining cells by the use of an Annexin V-FITC/PI Apoptosis Detection kit (BioVision Inc.). Viable cells were defined by Annexin V-negative, PI-negative cells.

Another data set relates to Balb/c mice. Kind of data set: Oral toxicity study in normal Balb/c mice. The class given is in vivo, mouse. The settings on record: […] oral, three weeks. How it is done: Compounds or vehicle control were dosed 15 times over 3 weeks, giving compounds daily for 5 consecutive days (Monday-Friday), resting on weekends.
Both compounds were provided by NCI-DTP (RAID-program). Compounds were dissolved in 100% sesame oil just before oral administration. Vehicle-control consisted of corresponding concentration of ascorbic acid suspended in 100% sesame oil.
Spleens were removed and weighed.
Whole blood (250 μl) was collected in EDTA-coated glass tubes (purple top; MICROTAINER Brand Tube with EDTA, Catalogue #365973, Becton, Dickinson and Company, New Jersey 07417-1885) via either cardiac puncture or severing the brachial artery of anesthetized mice. After thorough mixing, specimens were analyzed using a VetScan HM2 (Abaxis Inc., Union City, Calif. 94587) hematology analyzer, measuring white blood cell count (WBC), red blood cell count (RBC), platelet (PLT) count, leukocyte differential (including % lymphocyte, % monocyte and % granulocyte), hematocrit (Ht), and hemoglobin (Hb).
(Eppendorf Centrifuge 5415C) for 2 minutes to separate serum from cells and fibrin clot. The resulting serum specimens were analyzed using an automated blood chemistry analyzer (“COBAS MIRA Classic”; Roche, Indianapolis, Ind. 46250-0414) to measure alanine aminotransferase (ALT) and aspartate aminotransferase AST), blood urea nitrogen (BUN), and […].
Stomach and intestines were examined also imaged by ultrasound for evidence of dilation, an indication of GI toxicity. Briefly, mice were anesthetized using a mixture of isofluorane (5%) and oxygen gas (95%), restrained on a heated table using Aquagel Lubrication Gel (Parker Laboratories, Inc., Fairfield, N.J. 07004), and abdominal hair was removed with a chemical depilation agent (Nair™ Hair Removal, Church & Dwight Co., Inc., Princeton, N.J. 08543). Aquasonic 100 Ultrasound Transmission Gel (Parker Laboratories, Inc., Fairfield, N.J. 07004) was applied to the abdomen prior to imaging using a high-frequency probe to assess gas and intestinal distention.
Immediately after ultrasound imaging, electrocardiogram (ECG) analysis of anesthetized mice was performed using a MP150 Biopack System.

For data set [3], the system named is RS11846 cell line. Briefly: Apoptosis, Annexin V and propidium iodide assay. The class given is cell-based, human. The settings on record: 1-2 days; read-out: RS11846 EC50 (Annexin V- and propidium iodide assay).
The subject of the next data set is 380 cell line. Briefly: Apoptosis induction in NHL B-cell lines, Annexin V-FITC/PI. The class given is cell-based. Particulars: 48 hours, relative to DOHH2 and RS11846. How it is done: (§3) After 48 hours of incubation, % viability was determined by FACSort after staining cells by the use of an Annexin V-FITC/PI Apoptosis Detection kit (BioVision Inc.). Viable cells were defined by Annexin V-negative, PI-negative cells.

For another data set, the system named is DOHH2 cell line. The data set is described as above. The settings on record: 48 hours; read-out: IC50, % viability DOHH2. The class given is cell-based. How it is done: as §3
Data set [4] has as its system RS11846 cell line. The data set is described as above. Particulars: 48 hours; read-out: IC50, % viability RS11846. The class given is cell-based. How it is done: as §3
Another data set has as its target BCL-XL (Homo sapiens (Human), UniProt Q07817). Kind of data set: 1D 1H-NMR binding assay. Also: key: +++: Very Active; ++: Active; +: Mild; −: Weak. Particulars: 4-point-rating scale; compounds 200 μM, BCL-XL 25 μM. How it is done:
By observing the aliphatic region of the spectra, binding could be readily detected due to chemical shift changes in active site methyl groups of Ile, Leu, Thr, Val or Ala (region between −0.8 and 0.3 ppm). All experiments were performed with a 600 MHz spectrometer Bruker Avance 600 equipped with four rf channels and z-axis pulse-field gradients.

Sequence of BCL-XL (Q07817 whole entry): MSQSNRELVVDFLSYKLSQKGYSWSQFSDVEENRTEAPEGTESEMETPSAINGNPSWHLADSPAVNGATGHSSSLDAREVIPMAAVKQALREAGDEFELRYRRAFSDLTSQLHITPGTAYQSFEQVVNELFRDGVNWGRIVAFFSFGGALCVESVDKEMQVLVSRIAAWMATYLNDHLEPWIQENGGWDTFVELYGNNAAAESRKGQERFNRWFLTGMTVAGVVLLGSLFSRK

A word on the IC50: it is the concentration at which inhibition is half-maximal. One may read the EC50 as the midpoint of the concentration-response curve. As to `Cc1cc2c(C(C)C)c(O)c(O)c(C=O)c2c(O)c1-c1c(C)cc2c(C(C)C)c(O)c(O)c(C=O)c2c1O` [Gossypol, gossypol], the anti-tumor activity entry in data set [1] is “show anti-tumor activity”. The lethality result in [1] is reported as “non-lethal”. For the same compound, the IC50 with ZR75-1 cells was 8.4 µM; with MCF7 cells, 13.2 µM; in [2], about 10 µM; with DOHH2 cell line, about 3 µM; in the data set with RS11846 cell line [4] it was about 3 µM. Besides, the “general condition of mice” value in the data set with Balb/c mice is given as “lethagic with scruffy hair”. In the data set with RS11846 cell line [3], the EC50 was determined as 4.23 µM. Further, the “sensitivity of 380 cell line” value in the data set with 380 cell line is given as “slightly more resistant”. Further, the “1D 1H-NMR Binding Assay (BCL-XL)” value at BCL-XL is on record as “++”.
